Patent US10278984B2, “Guanosine as an immune potentiator mediated through toll receptors” (Nitor Therapeutics, priority 2014, dated 2019)

Experiments:
B16 tumors = experiment: Mouse melanoma model, NTR001 and cyclophosphamide; assay type: in vivo, C57BL/6 mice; conditions: cyclophosphamide 100 mg/kg IP single dose
Description: Method: Cancer cells were injected subcutaneously in right flank of each mouse, 1×10^4 cells in 0.1 ml PBS with 20% Matrigel. Treatment with the NTR001 was initiated on day 6 after injection of tumor cells. Tumor volume and survival were recorded every 3-4 days.

human TLR4 = target: T1, human TLR4 (Homo sapiens, UniProt O00206+Q9Y6Y9); experiment: TLR ligand screening: NF-κB SEAP reporter, agonist; assay type: cell-based; conditions: HEK293 cells expressing TLR4; guanosine 100 uM, NTR001 10 uM, inosine 100 uM; triplicate
T1 construct: expressed in transfected cells; host or cells: HEK293
Description: (§1) Method: TLR stimulation is tested by assessing NF-κB activation in HEK293 cells expressing a given TLR. The Secreted Embryonic Alkaline Phosphatase (SEAP) reporter is under the control of a promoter inducible by the transcription factor NF-κB. This reporter gene allows the monitoring of signaling through the TLR based on the activation of NF-κB. The activity of the compounds is tested on seven different human TLRs (TLR2, 3, 4, 5, 7, 8 and 9) as a potential agonist. The compounds are evaluated at one concentration and compared to control ligands. This step is performed in triplicate.

human TLR2 = target: T2, human TLR2 (Homo sapiens, UniProt O60603); experiment: TLR ligand screening: NF-κB SEAP reporter, agonist; assay type: cell-based; conditions: HEK293 cells expressing TLR2; guanosine 100 uM, NTR001 10 uM, inosine 100 uM; triplicate
T2 construct: expressed in transfected cells; host or cells: HEK293
Description: as §1

human TLR9 = target: T3, human TLR9 (Homo sapiens, UniProt Q9NR96); experiment: TLR ligand screening: NF-κB SEAP reporter, agonist; assay type: cell-based; conditions: HEK293 cells expressing TLR9; NTR001 10 uM, inosine 100 uM
T3 construct: expressed in transfected cells; host or cells: HEK293
T3 sequence (Q9NR96 26-1032): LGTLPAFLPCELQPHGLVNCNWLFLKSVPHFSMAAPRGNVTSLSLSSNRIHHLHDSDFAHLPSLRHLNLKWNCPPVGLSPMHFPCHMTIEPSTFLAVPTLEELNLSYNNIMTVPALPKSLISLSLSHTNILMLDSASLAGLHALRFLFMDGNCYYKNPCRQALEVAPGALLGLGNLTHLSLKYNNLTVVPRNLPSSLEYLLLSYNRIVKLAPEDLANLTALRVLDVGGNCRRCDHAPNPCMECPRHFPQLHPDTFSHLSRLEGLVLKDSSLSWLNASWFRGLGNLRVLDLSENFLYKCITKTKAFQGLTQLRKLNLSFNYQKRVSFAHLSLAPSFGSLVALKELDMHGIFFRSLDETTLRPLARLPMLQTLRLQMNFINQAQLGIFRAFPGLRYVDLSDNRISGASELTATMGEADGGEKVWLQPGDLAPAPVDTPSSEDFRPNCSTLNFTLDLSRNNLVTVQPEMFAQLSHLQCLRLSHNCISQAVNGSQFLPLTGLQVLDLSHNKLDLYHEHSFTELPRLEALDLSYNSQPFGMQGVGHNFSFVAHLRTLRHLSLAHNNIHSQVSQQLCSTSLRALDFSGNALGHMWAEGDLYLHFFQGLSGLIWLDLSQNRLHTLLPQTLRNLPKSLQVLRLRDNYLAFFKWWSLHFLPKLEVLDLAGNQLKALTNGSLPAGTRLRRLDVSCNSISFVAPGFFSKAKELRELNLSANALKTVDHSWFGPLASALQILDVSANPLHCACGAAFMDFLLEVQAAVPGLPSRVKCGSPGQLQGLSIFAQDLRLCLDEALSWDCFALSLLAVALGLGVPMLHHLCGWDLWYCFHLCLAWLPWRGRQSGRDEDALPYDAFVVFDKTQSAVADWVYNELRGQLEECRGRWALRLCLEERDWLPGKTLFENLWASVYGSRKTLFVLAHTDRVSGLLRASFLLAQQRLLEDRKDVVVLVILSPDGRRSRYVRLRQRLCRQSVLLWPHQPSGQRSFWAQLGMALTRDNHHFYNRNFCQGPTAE
Description: as §1

human TLR3 = target: T4, human TLR3 (Homo sapiens, UniProt O15455); experiment: TLR ligand screening: NF-κB SEAP reporter, agonist; assay type: cell-based; conditions: HEK293 cells expressing TLR3; NTR001 10 uM, inosine 100 uM
T4 construct: expressed in transfected cells; host or cells: HEK293
T4 sequence (O15455 24-904): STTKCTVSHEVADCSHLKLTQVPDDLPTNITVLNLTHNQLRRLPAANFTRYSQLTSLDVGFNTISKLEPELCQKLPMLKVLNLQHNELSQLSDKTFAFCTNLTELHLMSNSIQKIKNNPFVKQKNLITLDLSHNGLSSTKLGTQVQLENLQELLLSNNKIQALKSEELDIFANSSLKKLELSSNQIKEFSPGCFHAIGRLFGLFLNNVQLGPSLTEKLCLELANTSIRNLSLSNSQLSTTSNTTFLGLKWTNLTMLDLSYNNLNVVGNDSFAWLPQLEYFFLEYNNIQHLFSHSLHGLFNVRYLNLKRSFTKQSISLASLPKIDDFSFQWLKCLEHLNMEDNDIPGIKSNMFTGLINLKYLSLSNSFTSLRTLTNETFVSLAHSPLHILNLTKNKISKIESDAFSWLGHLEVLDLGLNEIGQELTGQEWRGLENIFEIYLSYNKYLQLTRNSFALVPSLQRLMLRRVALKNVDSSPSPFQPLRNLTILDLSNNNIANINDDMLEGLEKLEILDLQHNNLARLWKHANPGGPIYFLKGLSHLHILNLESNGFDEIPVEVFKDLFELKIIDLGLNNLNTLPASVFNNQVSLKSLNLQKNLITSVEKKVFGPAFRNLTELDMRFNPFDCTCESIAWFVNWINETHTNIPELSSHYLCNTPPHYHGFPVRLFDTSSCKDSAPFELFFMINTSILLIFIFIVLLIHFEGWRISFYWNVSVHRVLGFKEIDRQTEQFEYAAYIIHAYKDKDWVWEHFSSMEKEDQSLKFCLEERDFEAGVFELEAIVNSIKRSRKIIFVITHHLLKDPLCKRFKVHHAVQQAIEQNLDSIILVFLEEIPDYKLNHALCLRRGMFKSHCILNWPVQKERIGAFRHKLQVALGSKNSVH
Description: as §1

human TLR5 = target: T5, human TLR5 (Homo sapiens, UniProt O60602); experiment: TLR ligand screening: NF-κB SEAP reporter, agonist; assay type: cell-based; conditions: HEK293 cells expressing TLR5; NTR001 10 uM, inosine 100 uM
T5 construct: expressed in transfected cells; host or cells: HEK293
Description: as §1

human TLR7 = target: T6, human TLR7 (Homo sapiens, UniProt Q9NYK1); experiment: TLR ligand screening: NF-κB SEAP reporter, agonist; assay type: cell-based; conditions: HEK293 cells expressing TLR7; NTR001 10 uM, inosine 100 uM
T6 construct: expressed in transfected cells; host or cells: HEK293
T6 sequence (Q9NYK1 27-1049): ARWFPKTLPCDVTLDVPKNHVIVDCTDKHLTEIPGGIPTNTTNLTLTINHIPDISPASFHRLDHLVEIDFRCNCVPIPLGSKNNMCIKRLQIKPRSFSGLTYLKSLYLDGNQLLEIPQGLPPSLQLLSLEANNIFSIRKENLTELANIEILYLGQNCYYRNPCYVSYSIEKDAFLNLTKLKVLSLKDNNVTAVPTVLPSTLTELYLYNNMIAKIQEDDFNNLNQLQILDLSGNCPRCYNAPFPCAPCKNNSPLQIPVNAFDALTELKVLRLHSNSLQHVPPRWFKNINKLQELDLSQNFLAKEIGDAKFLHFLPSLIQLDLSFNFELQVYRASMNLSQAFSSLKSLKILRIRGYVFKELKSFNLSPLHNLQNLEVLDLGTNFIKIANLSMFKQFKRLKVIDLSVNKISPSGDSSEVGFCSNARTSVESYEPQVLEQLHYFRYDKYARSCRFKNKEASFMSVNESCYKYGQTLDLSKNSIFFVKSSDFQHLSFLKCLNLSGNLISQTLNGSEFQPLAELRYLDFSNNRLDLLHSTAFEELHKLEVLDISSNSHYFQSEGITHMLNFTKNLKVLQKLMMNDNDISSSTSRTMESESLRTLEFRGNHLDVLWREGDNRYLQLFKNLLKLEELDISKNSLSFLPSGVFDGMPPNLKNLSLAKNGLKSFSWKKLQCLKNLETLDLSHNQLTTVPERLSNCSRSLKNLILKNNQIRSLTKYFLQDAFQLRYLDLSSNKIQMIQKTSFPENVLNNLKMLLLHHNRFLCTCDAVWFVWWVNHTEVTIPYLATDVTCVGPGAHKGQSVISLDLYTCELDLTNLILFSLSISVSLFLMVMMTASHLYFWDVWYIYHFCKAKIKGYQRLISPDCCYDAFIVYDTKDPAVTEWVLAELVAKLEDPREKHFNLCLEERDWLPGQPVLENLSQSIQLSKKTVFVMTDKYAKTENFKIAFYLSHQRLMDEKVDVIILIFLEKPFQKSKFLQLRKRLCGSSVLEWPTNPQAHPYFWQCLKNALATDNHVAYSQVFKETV
Description: as §1

human TLR8 = target: T7, human TLR8 (Homo sapiens, UniProt Q9NR97); experiment: TLR ligand screening: NF-κB SEAP reporter, agonist; assay type: cell-based; conditions: HEK293 cells expressing TLR8; NTR001 10 uM, inosine 100 uM
T7 construct: expressed in transfected cells; host or cells: HEK293
T7 sequence (Q9NR97 27-1041): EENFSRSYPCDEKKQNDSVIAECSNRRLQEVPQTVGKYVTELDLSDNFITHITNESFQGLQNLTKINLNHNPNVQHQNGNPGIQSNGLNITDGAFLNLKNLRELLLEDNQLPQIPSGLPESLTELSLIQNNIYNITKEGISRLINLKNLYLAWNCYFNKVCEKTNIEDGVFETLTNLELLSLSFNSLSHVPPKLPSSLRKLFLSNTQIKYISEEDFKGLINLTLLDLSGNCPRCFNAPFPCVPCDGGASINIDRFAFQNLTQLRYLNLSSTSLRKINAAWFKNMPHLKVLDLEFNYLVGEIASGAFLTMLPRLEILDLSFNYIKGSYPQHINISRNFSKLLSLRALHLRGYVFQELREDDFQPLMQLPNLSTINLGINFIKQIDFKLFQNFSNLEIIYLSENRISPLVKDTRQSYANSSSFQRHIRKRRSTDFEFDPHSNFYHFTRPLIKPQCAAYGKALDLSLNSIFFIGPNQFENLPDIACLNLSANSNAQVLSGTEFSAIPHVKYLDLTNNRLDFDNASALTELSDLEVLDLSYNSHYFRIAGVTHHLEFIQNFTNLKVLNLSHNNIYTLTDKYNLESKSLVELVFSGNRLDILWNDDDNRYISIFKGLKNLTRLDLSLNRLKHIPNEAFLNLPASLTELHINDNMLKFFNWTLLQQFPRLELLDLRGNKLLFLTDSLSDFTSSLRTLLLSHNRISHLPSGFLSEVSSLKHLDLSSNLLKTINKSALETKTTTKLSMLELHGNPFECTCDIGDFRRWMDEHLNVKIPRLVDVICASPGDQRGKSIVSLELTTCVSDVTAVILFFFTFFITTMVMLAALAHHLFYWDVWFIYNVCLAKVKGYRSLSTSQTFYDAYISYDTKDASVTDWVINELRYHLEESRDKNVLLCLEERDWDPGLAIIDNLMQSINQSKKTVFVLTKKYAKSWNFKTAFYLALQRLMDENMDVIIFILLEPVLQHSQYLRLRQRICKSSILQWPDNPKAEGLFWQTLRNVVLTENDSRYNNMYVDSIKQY
Description: as §1

T2 sequence (O60603 21-784): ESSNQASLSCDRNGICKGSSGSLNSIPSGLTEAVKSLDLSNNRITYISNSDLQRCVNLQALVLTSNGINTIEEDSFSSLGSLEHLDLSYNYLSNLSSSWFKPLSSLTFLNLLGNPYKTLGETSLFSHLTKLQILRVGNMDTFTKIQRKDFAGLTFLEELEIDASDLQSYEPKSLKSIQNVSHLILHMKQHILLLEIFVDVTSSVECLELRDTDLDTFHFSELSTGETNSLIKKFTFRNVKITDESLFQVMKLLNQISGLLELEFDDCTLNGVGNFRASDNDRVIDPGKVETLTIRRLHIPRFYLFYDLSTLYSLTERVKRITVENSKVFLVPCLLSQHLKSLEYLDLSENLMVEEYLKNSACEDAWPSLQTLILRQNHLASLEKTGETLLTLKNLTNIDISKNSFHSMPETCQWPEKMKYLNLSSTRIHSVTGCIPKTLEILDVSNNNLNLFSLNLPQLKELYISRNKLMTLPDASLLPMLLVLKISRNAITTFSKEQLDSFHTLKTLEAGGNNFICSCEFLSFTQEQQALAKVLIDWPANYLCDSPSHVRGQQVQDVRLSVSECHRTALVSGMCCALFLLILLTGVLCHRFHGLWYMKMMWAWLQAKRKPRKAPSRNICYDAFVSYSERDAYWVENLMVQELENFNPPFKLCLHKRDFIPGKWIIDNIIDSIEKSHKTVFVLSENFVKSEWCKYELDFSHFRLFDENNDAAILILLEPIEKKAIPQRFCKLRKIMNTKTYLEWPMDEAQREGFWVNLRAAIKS
T1 sequence (O00206 24-839): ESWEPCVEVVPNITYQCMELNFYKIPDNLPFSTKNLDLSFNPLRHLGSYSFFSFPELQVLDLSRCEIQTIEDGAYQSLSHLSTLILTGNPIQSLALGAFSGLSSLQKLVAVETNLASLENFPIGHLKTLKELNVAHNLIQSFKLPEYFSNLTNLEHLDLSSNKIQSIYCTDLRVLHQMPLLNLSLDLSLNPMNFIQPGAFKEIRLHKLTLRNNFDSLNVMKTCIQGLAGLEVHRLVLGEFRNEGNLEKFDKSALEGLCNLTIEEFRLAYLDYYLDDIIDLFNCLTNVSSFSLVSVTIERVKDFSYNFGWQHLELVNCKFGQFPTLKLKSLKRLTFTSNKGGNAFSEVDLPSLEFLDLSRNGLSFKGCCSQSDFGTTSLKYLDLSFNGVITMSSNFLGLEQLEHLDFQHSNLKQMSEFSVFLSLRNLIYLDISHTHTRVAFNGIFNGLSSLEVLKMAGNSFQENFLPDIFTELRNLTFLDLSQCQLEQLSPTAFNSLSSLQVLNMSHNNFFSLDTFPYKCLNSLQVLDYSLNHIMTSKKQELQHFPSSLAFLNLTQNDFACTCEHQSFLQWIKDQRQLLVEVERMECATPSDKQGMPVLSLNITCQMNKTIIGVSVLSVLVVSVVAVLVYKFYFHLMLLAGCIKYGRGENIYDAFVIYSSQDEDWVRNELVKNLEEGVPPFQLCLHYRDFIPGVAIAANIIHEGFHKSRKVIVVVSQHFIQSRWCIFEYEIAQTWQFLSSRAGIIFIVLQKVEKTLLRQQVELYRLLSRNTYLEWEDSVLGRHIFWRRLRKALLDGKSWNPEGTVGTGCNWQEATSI
T1 sequence (Q9Y6Y9 17-160 limits assumed): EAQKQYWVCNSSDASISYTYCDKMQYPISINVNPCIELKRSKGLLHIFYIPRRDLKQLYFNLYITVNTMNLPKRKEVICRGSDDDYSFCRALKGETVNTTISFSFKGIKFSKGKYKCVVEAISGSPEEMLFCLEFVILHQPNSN
T5 sequence (O60602 21-858): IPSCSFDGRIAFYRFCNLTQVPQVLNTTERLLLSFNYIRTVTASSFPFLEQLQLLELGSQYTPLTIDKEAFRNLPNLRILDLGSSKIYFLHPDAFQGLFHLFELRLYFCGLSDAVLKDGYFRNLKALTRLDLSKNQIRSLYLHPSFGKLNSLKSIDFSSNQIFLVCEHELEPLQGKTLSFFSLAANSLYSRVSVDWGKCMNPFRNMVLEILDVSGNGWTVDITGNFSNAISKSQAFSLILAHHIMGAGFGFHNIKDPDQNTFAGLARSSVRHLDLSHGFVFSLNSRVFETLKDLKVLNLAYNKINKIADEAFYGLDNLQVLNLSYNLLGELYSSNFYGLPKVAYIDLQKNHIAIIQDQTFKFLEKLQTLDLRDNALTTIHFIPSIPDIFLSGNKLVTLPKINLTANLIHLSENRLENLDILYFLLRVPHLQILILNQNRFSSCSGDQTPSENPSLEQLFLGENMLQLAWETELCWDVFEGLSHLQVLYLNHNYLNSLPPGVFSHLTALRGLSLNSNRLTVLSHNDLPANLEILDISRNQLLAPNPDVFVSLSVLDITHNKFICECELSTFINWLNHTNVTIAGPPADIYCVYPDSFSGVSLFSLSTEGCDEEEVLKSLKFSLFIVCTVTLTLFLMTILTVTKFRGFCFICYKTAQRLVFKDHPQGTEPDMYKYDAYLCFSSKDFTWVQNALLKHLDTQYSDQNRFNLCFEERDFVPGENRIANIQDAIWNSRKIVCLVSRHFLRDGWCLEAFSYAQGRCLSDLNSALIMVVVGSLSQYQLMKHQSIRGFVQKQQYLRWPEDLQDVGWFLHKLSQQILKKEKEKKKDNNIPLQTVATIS

SMILES | survival (B16 tumors) | stimulatory effect on human TLR4 (NF-κB activation) (human TLR4) | stimulatory effect on human TLR2 (NF-κB activation) (human TLR2) | stimulatory effect on human TLR9 (NF-κB activation) (human TLR9) | stimulatory effect on human TLR3 (NF-κB activation) (human TLR3) | stimulatory effect on human TLR5 (NF-κB activation) (human TLR5) | stimulatory effect on human TLR7 (NF-κB activation) (human TLR7) | stimulatory effect on human TLR8 (NF-κB activation) (human TLR8)
O=P1(N(CCCl)CCCl)NCCCO1 (stereo not shown) [Cyclcophosphamide, Cyclophosphamide] | 30% | – | – | – | – | – | – | –
Nc1nc2c(ncn2[C@@H]2O[C@H](CO)[C@@H](O)[C@H]2O)c(=O)[nH]1 [Guansoine, guanosine] | – | significant stimulatory effect | significant stimulatory effect | – | – | – | – | –
OC[C@H]1O[C@@H](n2cnc3c(O)ncnc32)[C@H](O)[C@@H]1O [Inosine] | – | do not directly exhibit a stimulatory effect | do not directly exhibit a stimulatory effect | do not directly exhibit a stimulatory effect | do not directly exhibit a stimulatory effect | do not directly exhibit a stimulatory effect | do not directly exhibit a stimulatory effect | do not directly exhibit a stimulatory effect
